{"source": "patent US11214803B2", "about": "“Modulators of YAP1 expression” (Ionis Pharmaceuticals, Inc., priority 2019, dated 2022)", "format_in_all_cases": "cell-based", "key": {"[1]": {"test_system": "Yap1 mRNA", "assay": "Antisense inhibition of human Yap1 in A-431 cells by cEt gapmers, single dose (Example 3, RTS36584)", "protocol": "Modified oligonucleotides were designed to target a Yap1 nucleic acid and were tested for their effect on Yap1 mRNA level in vitro. The modified oligonucleotides were tested in a series of experiments that had similar culture conditions. Cultured A-431 cells at a density of 5,000 cells per well were treated using free uptake with 2,000 nM of modified oligonucleotide. After a treatment period of approximately 48 hours, RNA was isolated from the cells and Yap1 mRNA levels were measured by quantitative real-time RTPCR. Human primer probe set RTS36584 (forward sequence […], designated herein as SEQ ID NO.: 14; reverse sequence […], designated herein as SEQ ID NO.: 15; probe sequence […], designated herein as SEQ ID NO.: 16) was used to measure mRNA levels. Yap1 mRNA levels were normalized to total RNA content, as measured by RIBOGREEN®. Results are presented in the tables below as percent control of the amount of Yap1 mRNA relative to untreated control cells (% UTC). The modified oligonucleotides with percent control values marked with an asterisk (*) target the amplicon region of the primer probe set. Additional assays may be used to measure the potency and efficacy of the modified oligonucleotides targeting the amplicon region.\nThe newly designed modified oligonucleotides in the Tables below were designed as 3-10-3 cEt gapmers. The gapmers are 16 nucleosides in length, wherein the central gap segment comprises of ten 2′-deoxynucleosides and is flanked by wing segments on the 5′ direction and the 3′ direction comprising three nucleosides each. Each nucleoside in the 5′ wing segment and each nucleoside in the 3′ wing segment has a cEt sugar modification. The internucleoside linkages throughout each gapmer are phosphorothioate (P═S) linkages. All cytosine residues throughout each gapmer are 5-methylcytosines.\n“Start site” indicates the 5′-most nucleoside to which the gapmer is targeted in the human gene sequence. “Stop site” indicates the 3′-most nucleoside to which the gapmer is targeted human gene sequence. […] Activity of the modified oligonucleotide may be defined in a different experiment."}, "[2]": {"test_system": "Yap1 mRNA", "assay": "Antisense inhibition of human Yap1 in A-431 cells by cEt gapmers, single dose (Example 2, RTS4814)", "how_it_was_run": "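Free uptake, 2,000 nM, ~48 h, A-431 at 5,000 cells/well. Readout: RT-qPCR (RTS4814), RIBOGREEN-normalized, % UTC. 16-mer 3-10-3 cEt gapmers, full PS backbone, all C as 5-methylcytosine.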"}, "[3]": {"test_system": "Yap1 mRNA", "assay": "Antisense inhibition of human Yap1 in SNU-449 cells by modified oligonucleotides, single dose (Example 5, RTS36584)", "settings": "Table 48; Yap1 mRNA level relative to untreated control; modified oligonucleotides targeting SEQ ID NO.: 1 and 2", "how_it_was_run": "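Free uptake, 2,000 nM, ~48 h, SNU-449 at 10,000 cells/well. Read-out: qRT-PCR (RTS36584), RIBOGREEN-normalised, expressed as % UTC. Asterisk = oligo hits amplicon region.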"}, "[4]": {"settings": "Table 29, Yap1 mRNA as percent of untreated control, 3-10-3 cEt gapmers targeting SEQ ID NO.: 1, and 2"}, "[5]": {"settings": "Table 28, Yap1 mRNA as percent of untreated control, 3-10-3 cEt gapmers targeting SEQ ID NO.: 1, and 2"}, "[6]": {"settings": "Table 10, A-431 cells, 5,000 cells per well, free uptake, 2,000 nM oligonucleotide, approx. 48 hours, primer probe set RTS36584, Yap1 mRNA normalized to RIBOGREEN, percent of untreated control"}, "[7]": {"settings": "Table 34, Yap1 mRNA as percent of untreated control, 3-10-3 cEt gapmers targeting SEQ ID NO: 1 and 2, single dose"}}, "note": "Strand notation (5' to 3'): a small letter for the sugar, then the base; units joined by * are phosphorothioate-linked, units joined directly phosphodiester-linked; [ ] holds rarer units or linkages, { } end groups; capitals alone tell only the bases. k = constrained ethyl (cEt); [5mC] = 5-methylcytosine; d = 2'-deoxy (DNA)", "data": [{"substance": "1075823 (kT*kA*kT*dT*dA*dG*dA*dG*dG*dT*dT*d[5mC]*d[5mC]*kA*kG*kG; antisense) [compound 1075823]", "values": [{"measurement": "YAP1 (% UTC)", "setting": "[1]; [4]", "result": 30, "unit": "% UTC"}]}, {"substance": "1074958 (antisense kT*kA*kA*d[5mC]*d[5mC]*d[5mC]*dG*dG*dG*dT*dT*dT*dT*kT*kG*kT) [compound 1074958]", "values": [{"measurement": "YAP1 (% UTC)", "setting": "[1]; [5]", "result": 107, "unit": "% UTC"}]}, {"substance": "1076463 (kG*kA*kT*dT*dA*dG*dT*dA*dA*d[5mC]*dA*d[5mC]*dT*kG*kA*kT; antisense) [compound 1076463]", "values": [{"measurement": "YAP1 (% UTC)", "setting": "[1]; [4]", "result": 38, "unit": "% UTC"}]}, {"substance": "958682 (k[5mC]*k[5mC]*kA*dT*dG*dA*dG*dG*dG*dA*d[5mC]*dT*d[5mC]*k[5mC]*k[5mC]*kA; antisense) [Compound 958682]", "values": [{"measurement": "YAP1 (% UTC)", "setting": "[1]; [6]", "result": 123, "unit": "% UTC"}]}, {"substance": "1075829 (kA*k[5mC]*kT*d[5mC]*dA*dA*dT*dA*dG*dA*dT*d[5mC]*dA*kT*kT*kG; antisense) [compound 1075829]", "values": [{"measurement": "YAP1 (% UTC)", "setting": "[1]; Table 35, Yap1 mRNA as percent of untreated control, 3-10-3 cEt gapmers targeting SEQ ID NO: 1 and 2, single dose", "result": 41, "unit": "% UTC"}]}, {"substance": "958369 (antisense kT*kT*kA*dT*d[5mC]*dT*dA*dG*d[5mC]*dT*dT*dG*dG*kT*kG*kG) [Compound 958369]", "values": [{"measurement": "YAP1 (% UTC)", "setting": "[1]; Table 8, A-431 cells, 5,000 cells per well, free uptake, 2,000 nM, approximately 48 hours, RTS36584, normalized to RIBOGREEN, Yap1 mRNA relative to untreated control cells", "result": 4, "unit": "% UTC"}]}, {"substance": "1074990 (antisense kG*k[5mC]*k[5mC]*dG*d[5mC]*dA*dA*dA*dG*dG*dA*dA*dA*kG*kG*kG) [compound 1074990]", "values": [{"measurement": "YAP1 (% UTC)", "setting": "[1]; [5]", "result": 108, "unit": "% UTC"}]}, {"substance": "1075791 (k[5mC]*kT*kT*dT*dA*dT*d[5mC]*dA*dG*d[5mC]*d[5mC]*dA*dT*k[5mC]*kA*k[5mC]; antisense) [compound 1075791]", "values": [{"measurement": "YAP1 (% UTC)", "setting": "[1]; [4]", "result": 10, "unit": "% UTC"}]}, {"substance": "1076404 (antisense kT*kA*kT*dT*dT*dA*dA*dG*dA*d[5mC]*d[5mC]*dT*dG*kG*kT*kG) [compound 1076404]", "values": [{"measurement": "YAP1 (% UTC)", "setting": "[1]; [7]", "result": 13, "unit": "% UTC"}]}, {"substance": "958483 (antisense kG*kA*kG*dG*dA*dT*dT*dA*dA*dA*dG*dT*dA*kT*k[5mC]*kT) [Compound 958483]", "values": [{"measurement": "YAP1 (% UTC)", "setting": "[1]; Table 11, A-431 cells, 5,000 cells per well, free uptake, 2,000 nM oligonucleotide, approx. 48 hours, primer probe set RTS36584, Yap1 mRNA normalized to RIBOGREEN, percent of untreated control", "result": 17, "unit": "% UTC"}]}, {"substance": "1074260 (antisense kG*kT*kT*d[5mC]*dA*dT*d[5mC]*dA*dT*dA*dT*dT*d[5mC]*kT*kG*k[5mC]) [compound 1074260]", "values": [{"measurement": "YAP1 (% UTC)", "setting": "[1]; [7]", "result": 48, "unit": "% UTC"}]}, {"substance": "958472 (antisense kT*k[5mC]*k[5mC]*dT*dT*dA*dG*dA*dT*d[5mC]*d[5mC]*dT*dT*k[5mC]*kA*k[5mC]) [Compound 958472]", "values": [{"measurement": "YAP1 (% UTC)", "setting": "[1]; [6]", "result": 5, "unit": "% UTC"}]}, {"substance": "1076238 (kG*kA*kT*dG*dA*dA*dT*dA*dG*d[5mC]*dT*dA*dA*kG*kA*kA; antisense) [compound 1076238]", "values": [{"measurement": "YAP1 (% UTC)", "setting": "[1]; [5]", "result": 30, "unit": "% UTC"}]}, {"substance": "1074828 (kA*kT*kA*dA*dA*dA*dT*d[5mC]*d[5mC]*dA*d[5mC]*d[5mC]*dT*kG*kA*kG; antisense) [compound 1074828]", "values": [{"measurement": "YAP1 (% UTC)", "setting": "[1]; Table 26, Yap1 mRNA by 3-10-3 cEt gapmers targeting SEQ ID NO.: 1, and 2, percent of untreated control", "result": 58, "unit": "% UTC"}]}, {"substance": "1075213 (kA*k[5mC]*kA*dA*dT*dA*dA*dA*dG*dG*dG*dT*d[5mC]*k[5mC]*kT*kA; antisense) [compound 1075213]", "values": [{"measurement": "YAP1 (% UTC)", "setting": "[1]; Table 27, Yap1 mRNA by 3-10-3 cEt gapmers targeting SEQ ID NO.: 1, and 2, percent of untreated control", "result": 33, "unit": "% UTC"}]}, {"substance": "1074516 (kT*kT*kA*dA*d[5mC]*dT*dG*dG*dA*dA*dA*dG*d[5mC]*kA*kG*kG; antisense) [compound 1074516]", "values": [{"measurement": "YAP1 (% UTC)", "setting": "[1]; [7]", "result": 22, "unit": "% UTC"}]}, {"substance": "958692 (antisense kG*kG*k[5mC]*dT*dA*dG*dA*dG*dG*d[5mC]*d[5mC]*dG*dG*kG*kT*kG) [Compound 958692]", "values": [{"measurement": "YAP1 (% UTC)", "setting": "[1]; [6]", "result": 105, "unit": "% UTC"}]}, {"substance": "716524 (antisense kA*k[5mC]*kT*dG*dA*dG*dG*dT*dA*dT*dA*dA*d[5mC]*kT*kG*kG) [Compound 716524]", "values": [{"measurement": "YAP1 (% UTC)", "setting": "[2]; Table 5, A-431 cells, 5,000 cells per well, free uptake, 2,000 nM modified oligonucleotide, approx. 48 hours, RTS4814, normalized to RIBOGREEN, Yap1 mRNA relative to untreated control cells", "result": 35, "unit": "% UTC"}, {"measurement": "YAP1 (% UT)", "setting": "[3]", "result": 59, "unit": "% UT"}]}, {"substance": "1076456 (antisense k[5mC]*kT*kT*dT*dA*dA*dA*dG*dT*dG*dT*dA*dT*kG*kT*k[5mC]) [Compound 1076456]", "values": [{"measurement": "YAP1 (% UTC)", "setting": "[2]; Table 22, Yap1 mRNA as percent of untreated control, 3-10-3 cEt gapmers, single dose", "result": 2, "unit": "% UTC"}, {"measurement": "YAP1 (% UT)", "setting": "[3]", "result": 44, "unit": "% UT"}]}]}
